Test results: ChEMBL document CHEMBL3046047, “Synthesis and evaluation of anti-inflammatory and analgesic activity of 3-[(5-substituted-1,3,4-oxadiazol-2-yl-thio)acetyl]-2H-chromen-2-ones” (Med Chem Res, 2012)

Tests used:
Rattus norvegicus [1] = assay: Toxicity inRattus norvegicus albino (rat) assessed as ulcer index at 200 mg/kg, po after 7 hr relative to control; type: organism-based; parameters: dose 200 mg/kg, route oral; conditions: in vivo
Mus musculus [2] = assay: Acute toxicity in Mus musculus albino (mouse) assessed as mortality up to 2000 mg/kg, po after 24 hr; type: organism-based; parameters: dose 2000 mg/kg, route oral; conditions: in vivo
Mus musculus [3] = assay: Analgesic activity in Mus musculus albino (mouse) assessed as protection against acetic acid-induced writhing at 200 mg/kg, po administered 30 min before acetic acid challenge measured after 15 min relative to control; type: functional
Mus musculus [4] = assay: Acute toxicity in Mus musculus albino (mouse) assessed as alertness, touch response, and restlessness at 10 to 2000 mg/kg, po after 24 hr; type: organism-based; parameters: dose 10-2000 mg/kg, route oral; conditions: in vivo
Rattus norvegicus [5] = assay: Acute Anti-inflammatory activity inRattus norvegicus albino (rat) assessed as inhibition of carrageenan-induced paw edema at 200 mg/kg, po administered 1 hr after carrageenan challenge measured after 3 hr relative to control; type: functional
[6] = Acute toxicity in po dosed Mus musculus albino (mouse) up to 24 hr; type: organism-based; conditions: in vivo
Rattus norvegicus [7] = assay: Acute Anti-inflammatory activity in Rattus norvegicus albino (rat) assessed as inhibition of carrageenan-induced paw edema at 200 mg/kg, po administered 1 hr after carrageenan challenge measured after 5 hr relative to control; type: functional
Mus musculus [8] = assay: Analgesic activity in Mus musculus albino (mouse) assessed as protection against acetic acid-induced writhing at 135 mg/kg, po administered 30 min before acetic acid challenge measured after 15 min relative to control; type: functional
Rattus norvegicus [9] = assay: Acute Anti-inflammatory activity in Rattus norvegicus albino (rat) assessed as inhibition of carrageenan-induced paw edema at 13.5 mg/kg, po administered 1 hr after carrageenan challenge measured after 5 hr relative to control; type: functional
Rattus norvegicus [10] = assay: Acute Anti-inflammatory activity in Rattus norvegicus albino (rat) assessed as inhibition of carrageenan-induced paw edema at 13.5 mg/kg, po administered 1 hr after carrageenan challenge measured after 3 hr relative to control; type: functional

Row | SMILES | UI (Rattus norvegicus [1]) | Activity (Mus musculus [2]) | Activity (Mus musculus [3]) [%] | Activity (Mus musculus [4]) | inhibition in vivo at 200 mg/kg (Rattus norvegicus [5]) [%] | MTD at 24 h [6] [mg/kg] | inhibition in vivo at 200 mg/kg (Rattus norvegicus [7]) [%] | Activity (Mus musculus [8]) [%] | inhibition in vivo at 13.5 mg/kg (Rattus norvegicus [9]) [%] | inhibition in vivo at 13.5 mg/kg (Rattus norvegicus [10]) [%]
1 | CC(C(=O)O)c1ccc(-c2ccccc2)c(F)c1 (stereo not given) [FLURBIPROFEN] | 5.3 |  |  |  |  |  |  |  |  | 
2 | CC(C(=O)O)c1cccc(C(=O)c2ccccc2)c1 (stereo not given) [KETOPROFEN] | 4.6 |  |  |  |  |  |  |  |  | 
3 | CC(c1cccc(C(=O)c2ccccc2)c1)c1nnc(SCC(=O)c2cc3ccccc3oc2=O)o1 (stereo not given) | 3.2 | Non-toxic | 73 | Toxic | 65.4 | 200 | 60.9 |  |  | 
4 | O=C(Cc1ccccc1Nc1c(Cl)cccc1Cl)OCc1nnc(SCC(=O)c2cc3ccccc3oc2=O)o1 |  | Non-toxic |  | Toxic | 37.5 | 200 | 26.3 |  |  | 
5 | O=C(CSc1nnc(C2CCn3c(C(=O)c4ccccc4)ccc32)o1)c1cc2ccccc2oc1=O (stereo not given) | 4.4 | Non-toxic | 54 | Toxic | 67.4 | 200 | 71.3 |  |  | 
6 | O=C(CSc1nnc(Cc2ccccc2Nc2c(Cl)cccc2Cl)o1)c1cc2ccccc2oc1=O | 1.7 | Non-toxic | 68 | Toxic | 81.3 | 200 | 64.5 |  |  | 
7 | C[C@H](c1ccc(-c2ccccc2)c(F)c1)c1nnc(SCC(=O)c2cc3ccccc3oc2=O)o1 | 2.3 | Non-toxic | 60 | Toxic | 74.9 | 200 | 61.6 |  |  | 
8 | CC(=O)Oc1ccccc1C(=O)O [ASPIRIN] |  |  |  |  |  |  |  | 69 |  | 
9 | CC(C)Cc1ccc(C(C)c2nnc(SCC(=O)c3cc4ccccc4oc3=O)o2)cc1 (stereo not given) |  | Non-toxic |  | Toxic | 45 | 200 | 46.1 |  |  | 
10 | O=C(O)Cc1ccccc1Nc1c(Cl)cccc1Cl [DICLOFENAC] | 5.5 |  |  |  |  |  |  |  | 75 | 79.5
11 | O=C(CSc1nnc(-c2ccccc2O)o1)c1cc2ccccc2oc1=O |  | Non-toxic |  | Toxic | 46.3 | 200 | 48.7 |  |  | 
12 | CC(=O)Nc1ccc(OCc2nnc(SCC(=O)c3cc4ccccc4oc3=O)o2)cc1 |  | Non-toxic |  | Toxic | 56.3 | 200 | 43.4 |  |  | 
13 | O=C(c1ccccc1)c1ccc2n1CCC2C(=O)O (stereo not given) [KETOROLAC] | 4.9 |  |  |  |  |  |  |  |  | 
14 | COc1ccc2c(c1)c(Cc1nnc(SCC(=O)c3cc4ccccc4oc3=O)o1)c(C)n2C(=O)c1ccc(Cl)cc1 |  | Non-toxic |  | Toxic | 56.9 | 200 | 51.3 |  |  | 
